According to BindingDB's records for doi:10.1021/jm00172a010 (Centre De Recherches De Vitry, 1990):

How the values were obtained:
[1] = molecular target: T1, Polyunsaturated fatty acid 5-lipoxygenase (Rattus norvegicus, UniProt P12527); test: In vitro inhibition of 5-lipoxygenase in rat (peritoneal assay)
T1 sequence (P12527 whole entry): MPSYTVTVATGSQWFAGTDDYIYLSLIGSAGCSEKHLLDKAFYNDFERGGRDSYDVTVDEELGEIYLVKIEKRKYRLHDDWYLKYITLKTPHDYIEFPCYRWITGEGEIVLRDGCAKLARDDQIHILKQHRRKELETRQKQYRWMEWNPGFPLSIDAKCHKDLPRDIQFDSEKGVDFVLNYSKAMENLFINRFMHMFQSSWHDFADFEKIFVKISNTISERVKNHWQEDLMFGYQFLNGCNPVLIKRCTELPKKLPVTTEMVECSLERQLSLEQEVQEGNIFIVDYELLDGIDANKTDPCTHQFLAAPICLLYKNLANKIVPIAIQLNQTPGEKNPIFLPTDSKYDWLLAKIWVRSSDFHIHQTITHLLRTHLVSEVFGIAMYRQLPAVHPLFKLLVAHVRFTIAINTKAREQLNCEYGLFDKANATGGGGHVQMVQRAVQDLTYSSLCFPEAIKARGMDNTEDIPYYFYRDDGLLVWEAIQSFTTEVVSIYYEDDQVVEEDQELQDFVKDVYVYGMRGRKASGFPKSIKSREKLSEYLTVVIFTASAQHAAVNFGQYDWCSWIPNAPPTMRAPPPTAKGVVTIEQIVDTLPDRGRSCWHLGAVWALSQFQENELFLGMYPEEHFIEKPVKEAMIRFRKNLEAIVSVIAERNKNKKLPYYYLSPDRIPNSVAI

[2] = molecular target: T1, Polyunsaturated fatty acid 5-lipoxygenase; test: In vitro inhibitory activity against 5-Lipoxygenase in rat by Peritoneal 5-lipoxygenase assay

Work on `CCOC(=O)C(=CCC(=O)C(=O)c1ccccc1)Sc1ccccc1` yielded an IC50 [1] of 3 µM.
